Measurements taken from patent publication US11129870B2, “Compositions and methods for uncoupling TrkB receptor from PLC gamma 1 for the treatment of epilepsy and anxiety-like disorder” (DUKE UNIVERSITY, priority 2010, dated 2021).
Where no end group is shown, it is not given here. [ ]: non-standard residue; d: D form. pY = N[C@@H](Cc1ccc(OP(=O)(O)O)cc1)C(=O)O

Key:
Type in all cases: in vivo, mouse
Akt = assay: p-Akt in hippocampal lysates of naive mice after i.v. peptide; conditions: 10 mg/kg i.v., 3 hr
Experimental: (§1) Animals were anesthetized with pentobarbital (200 mg/kg i.p.) and decapitated, and the head was quickly immersed in liquid nitrogen for 4 s to rapidly cool the brain. The hippocampi were rapidly dissected on ice and homogenized in RIPA buffer, incubated on ice for 15 min, and centrifuged at 200,000×g for 10 min at 4° C. The supernatant was collected and stored at −80° C. until further analysis. TrkB was immunoprecipitated using TrkB antibody (1:1000, Millipore) and the lysates were incubated with 100 μL of protein A-Sepharose beads (Roche) overnight in 4° C. The beads/immune complexes were pelleted in a microcentrifuge and then resuspended in RIPA buffer and this procedure was repeated two additional times before adding 2×SDS PAGE sample buffer and boiled. After SDS PAGE, the gels were probed with TrkB and PLCγ1 antibody (1:1000, Cell signaling). Western blotting was conducted as previously described (He et al., 2010). Cell lysate and hippocampal homogenate were probed with p-PLCγ1 (pY783), PLCγ1, p-Akt (pS473), Akt, p-ERK (p44/p42) and ERK (1:1000, Cell signaling). The immunoreactivity of individual bands on western blots was measured by ImageJ software (National Institutes of Health) and normalized to PLCγ1, Akt or ERK contents. Equivalent protein loading among samples was monitored by β-actin (1:10000; Sigma) levels. […]

ERK = assay: p-ERK in hippocampal lysates of naive mice after i.v. peptide; conditions: 10 mg/kg i.v., 3 hr
Experimental: as §1

PLCγ1 = assay: SE-induced activation of PLCγ1 in hippocampus, peptide given i.v. after SE; conditions: 6 hr later
Experimental: Surgery and microinfusion studies provided in Examples 10-14 were performed as described here. Surgery and microinfusion of KA into right amygdala of adult mice was performed as previously described (Liu, G. et al., (2013) Neuron 79:31-38). Briefly, mice were anesthetized with pentobarbital (60 mg/kg, intraperitoneally [i.p.]) and placed in a stereotaxic frame. A guide cannula was stereotactically placed above the right amygdala (coordinates from bregma: AP=−1.2 mm; ML=3.0 mm). A bipolar electrode was placed in the left dorsal hippocampus (coordinates from bregma: AP=−2.0 mm; ML=−1.6 mm; DV=−1.5 mm). A ground electrode connected to a screw was placed in the skull above the cerebellum. After a postoperative recovery period of 7 days, the animal was gently restrained and an infusion cannula was inserted into the right amygdala through the guide cannula at the depth of 3.7 mm below dura. […]
Animals were anesthetized with pentobarbital (200 mg/kg i.p.) and decapitated, and the head was quickly immersed in liquid nitrogen for 4 s to rapidly cool the brain. […] The immunoreactivity of individual bands on western blots was measured by ImageJ software (National Institutes of Health) and normalized to PLCγ1, Akt or ERK contents. Equivalent protein loading among samples was monitored by β-actin (1:10000; Sigma) levels. […]

## YGRKKRRQRRR-LQNLAKASPVpYLDI (YGRKKRRQRRRLQNLAKASPV[pY]LDI) [pY816]
Akt
  p-Akt in hippocampal lysates: neither p-Akt nor p-ERK was affected
ERK
  p-ERK in hippocampal lysates: neither p-Akt nor p-ERK was affected
PLCγ1; 10 mg/kg i.v. immediately after diazepam
  inhibition of SE-induced activation of PLCγ1 (p-PLCγ1 pY783 to PLCγ1 ratio): ~75%
PLCγ1; 20 mg/kg i.v. immediately after diazepam
  inhibition of SE-induced activation of PLCγ1 (p-PLCγ1 pY783 to PLCγ1 ratio): ~75%
